Source: article PMC10520873, “Biochemical investigation of the tryptophan biosynthetic enzyme anthranilate phosphoribosyltransferase in plants” (The Journal of Biological Chemistry, 2023)
Blank lines part the entries; values can stand above or below the compound they belong to.

How the values were obtained:
Assay type in all cases: biochemical
[1] = target: T1, PvPAT1 (Pistacia vera, UniProt Z9K6G7Q8L5); assay: coupled pyrophosphate release to NADH oxidation, […] nm; Michaelis-Menten fit; conditions: 1 mM PR-PPi, 45 mM imidazole HCl pH 7.4, 30 °C
T1 construct: codon-optimized gene in pET28a, His-tagged, E. coli BL21 (DE3), Ni-NTA
T1 sequence (Z9K6G7Q8L5 1-311): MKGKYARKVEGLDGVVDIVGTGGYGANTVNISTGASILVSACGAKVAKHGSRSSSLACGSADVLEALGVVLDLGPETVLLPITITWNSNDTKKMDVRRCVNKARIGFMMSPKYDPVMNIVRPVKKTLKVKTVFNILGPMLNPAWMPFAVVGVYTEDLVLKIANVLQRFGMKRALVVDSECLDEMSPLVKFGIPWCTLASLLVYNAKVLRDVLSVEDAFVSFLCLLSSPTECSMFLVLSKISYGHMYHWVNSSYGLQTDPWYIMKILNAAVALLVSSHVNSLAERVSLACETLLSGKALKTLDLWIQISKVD

[2] = target: T2, PpPAT1 (Physcomitrium patens, UniProt A9T6I7); assay: EnzChek pyrophosphate assay (PNP-coupled, […] nm)
T2 construct: gene LOC112294424; codon-optimized gene in pET28a, His-tagged, E. coli BL21 (DE3), Ni-NTA

[3] = target: T2, PpPAT1; assay: coupled pyrophosphate release to NADH oxidation, […] nm; substrate inhibition fit; conditions: 1 mM PR-PPi, 45 mM imidazole HCl pH 7.4, 30 °C
[4] = target: T3, CsPAT1 (Citrus sinensis, UniProt A0ACB8LSF1); assay: as above; conditions: 1 mM PR-PPi, 45 mM imidazole HCl pH 7.4, 30 °C
T3 construct: gene KPL71_006645; codon-optimized gene in pET28a, His-tagged, E. coli BL21 (DE3), Ni-NTA

[5] = target: T4, JrPAT1 (Juglans regia, UniProt A0A6P9ES87); assay: as above; conditions: 1 mM PR-PPi, 45 mM imidazole HCl pH 7.4, 30 °C
T4 construct: gene LOC109021987; codon-optimized gene in pET28a, His-tagged, E. coli BL21 (DE3), Ni-NTA

[6] = target: T5, SmPAT1 (Selaginella moellendorffii, UniProt Z9CFY1Y489); assay: as above; conditions: 1 mM PR-PPi, 45 mM imidazole HCl pH 7.4, 30 °C
T5 construct: gene PAT1; codon-optimized gene in pET28a, His-tagged, E. coli BL21 (DE3), Ni-NTA

[7] = target: T1, PvPAT1; assay: as above; conditions: 1 mM PR-PPi, 45 mM imidazole HCl pH 7.4, 30 °C
[8] = target: T6, AtPAT1 (Arabidopsis thaliana, UniProt Q02166); assay: as above; conditions: 1 mM PR-PPi, 45 mM imidazole HCl pH 7.4, 30 °C
T6 construct: gene PAT1; codon-optimized gene in pET28a, His-tagged, E. coli BL21 (DE3), Ni-NTA

[9] = target: T5, SmPAT1; assay: EnzChek pyrophosphate assay (PNP-coupled, […] nm)

- Km ([1]; 3-HAA 0-0.5 mM): 50 ± 5.3 µM
Compound: Nc1c(O)cccc1C(=O)O [3-hydroxyanthranilate]

Compound: N[C@@H](Cc1ccc(O)cc1)C(=O)O [Tyr]
- IC50 [2]: 1.18 mM

Compound: Nc1ccccc1C(=O)O [anthranilate]
- Ki [3]: > 5 mM
- Km ([1]; anthranilate 0-0.75 mM): 32.1 ± 4.7 µM
- Ki [4]: 4.1 ± 0.6 mM
- Ki [5]: > 5 mM
- Ki [6]: 3.6 ± 0.8 mM
- Ki [7]: 1.8 ± 0.4 mM
- Ki [8]: 4.3 ± 0.4 mM

- IC50 [9]: 1.98 mM
Compound: N[C@@H](Cc1ccccc1)C(=O)O [Phe]
